Experimental data from patent publication US8618137B2 (priority 2008, dated 2013).
Where two headings read alike, the source gives them in different places. Marks after values point to notes of the source that are not given here.

How the values were obtained:
Type in all cases: in vivo
[1] = test system: Phytophthora infestans (the causal agent of tomato late blight); settings: sprayed the day before inoculation, 100 = 100% disease control, 0 = no control
[2] = test system: Plasmopara viticola (the causal agent of grape downy mildew); experiment: Test A: grape downy mildew, grape seedlings inoculated then sprayed with test suspension, visual disease rating; settings: 100 = 100% disease control, 0 = no control relative to controls
From the text: General protocol for preparing test suspensions for Tests A-B2: The test compounds were first dissolved in acetone in an amount equal to 3% of the final volume and then suspended at the desired concentration (in ppm) in acetone and purified water (50/50 mix by volume) containing 250 ppm of the surfactant Trem® 014 (polyhydric alcohol esters). The resulting test suspensions were then used in Tests A-B2. Spraying a 200 ppm test suspension to the point of run-off on the test plants was the equivalent of a rate of 800 g/ha.
Grape seedlings were inoculated with a spore suspension of Plasmopara viticola (the causal agent of grape downy mildew) and incubated in a saturated atmosphere at 20° C. for 24 h. After a short drying period, the grape seedlings were sprayed with the test suspension to the point of run-off, then moved to a growth chamber at 20° C. for 5 days, and then back into a saturated atmosphere at 20° C. for 24 h. Upon removal, visual disease ratings were made.
Results for Tests A-B2 are given in Table A. In the Table, a rating of 100 indicates 100% disease control and a rating of 0 indicates no disease control (relative to the controls). All results are for 10 ppm except where followed by an “*” which indicates 40 ppm and “**” which indicates 200 ppm.

[3] = test system: Phytophthora infestans (the causal agent of tomato late blight); settings: sprayed 17 h after inoculation, 100 = 100% disease control, 0 = no control
[4] = test suspension 10 ppm, listed as 2

Compound	Test B1 rating (disease control) ([1]; test suspension 10 ppm)	Test A rating (disease control) ([2]; test suspension 10 ppm)	Test B2 rating (disease control) ([3]; test suspension 10 ppm)	Test B1 rating (disease control) ([1]; test suspension 40 ppm (*))	Test A rating (disease control) ([2]; test suspension 40 ppm (*))	Test B2 rating (disease control) ([3]; test suspension 40 ppm (*))	further results
1-[4-[4-[5-(2,6-difluorophenyl)-4,5-dihydro-3-isoxazolyl]-2-thiazolyl]-1-piperidinyl]-2-(4,5-dihydro-3,5-dimethyl-1H-pyrazol-1-yl]ethanone [Compound 40]	100%	100%	98%	–	–	–	–
2,2,2-trifluoroacetaldehyde, O-[2-[4-[4-[5-(2,6-difluorophenyl)-4,5-dihydro-3-isoxazolyl]-2-thiazolyl]-1-piperidinyl]-2-oxoethyl]oxime [Compound 3]	100%	100%	99%	–	–	–	–
CC(C)=NOC(C(=O)N1CCC(c2nc(C3=NOC(c4c(F)cccc4F)C3)cs2)CC1)c1ccccc1 (mixture of isomers) [compound 32]	–	–	–	100* %	94* %	92* %	–
CCC(ON=C(C)C)C(=O)N1CCC(c2nc(C3=NOC(c4c(F)cccc4F)C3)cs2)CC1 (mixture of isomers) [compound 39]	–	–	–	100* %	100* %	99* %	–
CC(=NOCC(=O)N1CCC(c2nc(C3=NOC(c4c(F)cccc4F)C3)cs2)CC1)C(F)(F)F (racemic) [Compound 4]	100%	100%	99%	–	–	–	–
CCCC=NOCC(=O)N1CCC(c2nc(C3=NOC(c4c(F)cccc4F)C3)cs2)CC1 (racemic) [compound 10]	95%	98%	88%	–	–	–	–
CSC(=NOCC(=O)N1CCC(c2nc(C3=NOC(c4c(F)cccc4F)C3)cs2)CC1)C(=O)N(C)C (racemic) [compound 11]	26%	0%	0%	–	–	–	–
CSC(C)=NOCC(=O)N1CCC(c2nc(C3=NOC(c4c(F)cccc4F)C3)cs2)CC1 (racemic) [compound 12]	47%	17%	0%	–	–	–	–
CC(C)=NOCC(=O)N1CCC(c2nc(C3=NOC(c4ccccc4C)C3)cs2)CC1 (racemic) [compound 14]	98%	100%	88%	–	–	–	–
CCC(C)=NOCC(=O)N1CCC(c2nc(C3=NOC(c4c(F)cccc4F)C3)cs2)CC1 (racemic) [compound 16]	100%	100%	99%	–	–	–	–
O=C(CON=CC(Cl)(Cl)Cl)N1CCC(c2nc(C3=NOC(c4c(F)cccc4F)C3)cs2)CC1 (racemic) [compound 17]	97%	66%	47%	–	–	–	–
N#Cc1ccccc1C1CC(c2csc(C3CCN(C(=O)CON=CC(F)(F)F)CC3)n2)=NO1 (racemic) [compound 20]	100%	100%	99%	–	–	–	–
CC(C)=NOCCC(=O)N1CCC(c2nc(C3=NOC(c4c(F)cccc4F)C3)cs2)CC1 (racemic) [compound 21]	–	–	–	100* %	100* %	98* %	–
CC=NOCC(=O)N1CCC(c2nc(C3=NOC(c4c(F)cccc4F)C3)cs2)CC1 (racemic) [compound 22]	100%	100%	99%	–	–	–	–
CCC(=NOCC(=O)N1CCC(c2nc(C3=NOC(c4c(F)cccc4F)C3)cs2)CC1)C(F)(F)F (racemic) [compound 23]	99%	98%	83%	–	–	–	–
CC(CC(C)C)=NOCC(=O)N1CCC(c2nc(C3=NOC(c4c(F)cccc4F)C3)cs2)CC1 (racemic) [compound 25]	–	–	–	100* %	93* %	58* %	–
CC(CC(F)(F)F)=NOCC(=O)N1CCC(c2nc(C3=NOC(c4c(F)cccc4F)C3)cs2)CC1 (racemic) [compound 26]	100%	100%	99%	–	–	–	–
CC(C)C=NOCC(=O)N1CCC(c2nc(C3=NOC(c4c(F)cccc4F)C3)cs2)CC1 (racemic) [compound 27]	–	–	–	100* %	98* %	99* %	–
CC(C)CC=NOCC(=O)N1CCC(c2nc(C3=NOC(c4c(F)cccc4F)C3)cs2)CC1 (racemic) [compound 28]	–	–	–	95* %	98* %	68* %	–
CCC=NOCC(=O)N1CCC(c2nc(C3=NOC(c4c(F)cccc4F)C3)cs2)CC1 (racemic) [compound 30]	–	–	–	100* %	100* %	99* %	–
CC(C)(C)OC(=O)NCCC(=O)N1CCC(c2nc(C3=NOC(c4c(F)cccc4F)C3)cs2)CC1 (racemic) [compound 33]	–	–	–	–	–	–	Test B1 rating (disease control) ([1]; test suspension 200 ppm (**)): 68** %; Test A rating (disease control) ([2]; test suspension 200 ppm (**)): 0** %; Test B2 rating (disease control) ([3]; test suspension 200 ppm (**)): 0** %
O=C(CCNC(=O)C(F)(F)F)N1CCC(c2nc(C3=NOC(c4c(F)cccc4F)C3)cs2)CC1 (racemic) [compound 34]	–	–	–	–	–	–	Test B1 rating (disease control) ([1]; test suspension 200 ppm (**)): 97** %; Test A rating (disease control) ([2]; test suspension 200 ppm (**)): 33** %; Test B2 rating (disease control) ([3]; test suspension 200 ppm (**)): 40** %
O=C(CON=CC(F)(F)F)N1CCC(c2nc(C3=NOC(c4c(F)cccc4F)C3)cs2)CC1 (stereo not drawn) [Compound 3, 2,2,2-trifluoroacetaldehyde, O-[2-[4-[4-[5-(2,6-difluorophenyl)-4,5-dihydro-3-isoxazolyl]-2-thiazolyl]-1-piperidinyl]-2-oxoethyl]oxime]	100%	100%	99%	–	–	–	–
O=C(CON=C1CCCC1)N1CCC(c2nc(C3=NOC(c4c(F)cccc4F)C3)cs2)CC1 (stereo not drawn) [Compound 5]	95%	95%	98%	–	–	–	Test B1 rating (disease control) [1, 4]: 100%; Test A rating (disease control) [2, 4]: 100%; Test B2 rating (disease control) [3, 4]: 100%
C[C@H](c1ccccc1)N(C)C(=O)c1csc(C2CCN(C(=O)CON=CC(F)(F)F)CC2)n1 [Compound 31, N-methyl-N-[(1R)-1-phenylethyl]-2-[1-[2-[[(2,2,2-trifluoroethylidene)amino]oxy]acetyl]-4-piperidinyl]-4-thiazolecarboxamide]	–	–	–	100* %	100* %	99* %	–
CN(CC(=O)N1CCC(c2nc(C3=NOC(c4c(F)cccc4F)C3)cs2)CC1)N=CC(F)(F)F (stereo not drawn) [Compound 35]	–	–	–	100* %	100* %	99* %	–
